Measured values published in article PMC5520994 (Science signaling, 2017).
“Also recorded” adds a separate entry of the source. Read-outs that look alike come from different tables or passages of the source.

Tests used:
[1] = molecular target: IL-17A/IL-17RA binding (Homo sapiens, UniProt Q96F46); experiment: Ligand-receptor binding inhibition assay
[2] = molecular target: T1, IL-17E/IL-17RB binding (Homo sapiens, UniProt Q9NRM6); experiment: Ligand-receptor binding inhibition assay; conditions: serial dilutions, purified proteins
T1 sequence (Q9NRM6 18-289): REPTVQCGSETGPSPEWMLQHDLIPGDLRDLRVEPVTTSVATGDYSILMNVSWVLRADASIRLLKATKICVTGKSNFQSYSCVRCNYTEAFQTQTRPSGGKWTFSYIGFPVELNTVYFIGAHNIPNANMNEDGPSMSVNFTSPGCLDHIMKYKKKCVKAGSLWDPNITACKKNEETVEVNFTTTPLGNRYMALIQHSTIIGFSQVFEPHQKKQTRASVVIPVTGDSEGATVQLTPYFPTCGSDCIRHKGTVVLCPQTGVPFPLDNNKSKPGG

[3] = molecular target: T2, IL-17C/IL-17RE binding (Homo sapiens, UniProt Q8NFR9); experiment: Ligand-receptor binding inhibition assay; conditions: serial dilutions, purified proteins
T2 sequence (Q8NFR9 155-454): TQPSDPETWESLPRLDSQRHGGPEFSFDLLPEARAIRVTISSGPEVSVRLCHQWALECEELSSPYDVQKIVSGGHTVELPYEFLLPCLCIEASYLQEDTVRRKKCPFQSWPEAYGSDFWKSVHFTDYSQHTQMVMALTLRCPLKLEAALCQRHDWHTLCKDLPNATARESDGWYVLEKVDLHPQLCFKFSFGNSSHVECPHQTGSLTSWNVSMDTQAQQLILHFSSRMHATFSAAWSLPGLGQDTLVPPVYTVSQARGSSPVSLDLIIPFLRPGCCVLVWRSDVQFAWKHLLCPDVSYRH

[4] = molecular target: IL-17RA (WT) (Homo sapiens, UniProt Q96F46); experiment: Fluorescence quenching assay of A18 binding to labeled IL-17RA
Chain of IL-17RA (WT) (Q96F46 33-320 limits assumed): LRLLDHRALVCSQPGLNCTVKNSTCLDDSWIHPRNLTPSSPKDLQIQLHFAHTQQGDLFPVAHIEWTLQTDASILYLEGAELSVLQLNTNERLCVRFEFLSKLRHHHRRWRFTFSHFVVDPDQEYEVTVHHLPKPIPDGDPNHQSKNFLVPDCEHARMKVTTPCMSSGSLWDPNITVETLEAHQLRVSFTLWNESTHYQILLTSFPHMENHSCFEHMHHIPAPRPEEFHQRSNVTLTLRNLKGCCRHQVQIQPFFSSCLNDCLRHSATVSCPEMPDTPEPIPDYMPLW

[5] = molecular target: T3, IL-17RA D262A mutant (Homo sapiens, UniProt Q96F46, D293A); experiment: Fluorescence quenching assay of A18 binding to labeled IL-17RA D262A mutant
T3 sequence (Q96F46 33-320 D293A): as the sequence (Q96F46 33-320 limits assumed) above, with D261A counted along it

[6] = molecular target: IL-17RA (Homo sapiens, UniProt Q96F46); experiment: Surface plasmon resonance; type: binding; conditions: immobilized IL-17RA on CM5 chip
Chain of IL-17RA (Q96F46 33-320 limits assumed): as the sequence (Q96F46 33-320 limits assumed) above

[7] = molecular target: IL-17RA on IL-17RA–293 cells and HeLa cells (Homo sapiens, UniProt Q96F46); experiment: Binding of biotinylated IL-17A to live cells, flow cytometry; type: cell-based; conditions: A18 10 μM
Chain of IL-17RA on IL-17RA–293 cells and HeLa cells (Q96F46 33-866): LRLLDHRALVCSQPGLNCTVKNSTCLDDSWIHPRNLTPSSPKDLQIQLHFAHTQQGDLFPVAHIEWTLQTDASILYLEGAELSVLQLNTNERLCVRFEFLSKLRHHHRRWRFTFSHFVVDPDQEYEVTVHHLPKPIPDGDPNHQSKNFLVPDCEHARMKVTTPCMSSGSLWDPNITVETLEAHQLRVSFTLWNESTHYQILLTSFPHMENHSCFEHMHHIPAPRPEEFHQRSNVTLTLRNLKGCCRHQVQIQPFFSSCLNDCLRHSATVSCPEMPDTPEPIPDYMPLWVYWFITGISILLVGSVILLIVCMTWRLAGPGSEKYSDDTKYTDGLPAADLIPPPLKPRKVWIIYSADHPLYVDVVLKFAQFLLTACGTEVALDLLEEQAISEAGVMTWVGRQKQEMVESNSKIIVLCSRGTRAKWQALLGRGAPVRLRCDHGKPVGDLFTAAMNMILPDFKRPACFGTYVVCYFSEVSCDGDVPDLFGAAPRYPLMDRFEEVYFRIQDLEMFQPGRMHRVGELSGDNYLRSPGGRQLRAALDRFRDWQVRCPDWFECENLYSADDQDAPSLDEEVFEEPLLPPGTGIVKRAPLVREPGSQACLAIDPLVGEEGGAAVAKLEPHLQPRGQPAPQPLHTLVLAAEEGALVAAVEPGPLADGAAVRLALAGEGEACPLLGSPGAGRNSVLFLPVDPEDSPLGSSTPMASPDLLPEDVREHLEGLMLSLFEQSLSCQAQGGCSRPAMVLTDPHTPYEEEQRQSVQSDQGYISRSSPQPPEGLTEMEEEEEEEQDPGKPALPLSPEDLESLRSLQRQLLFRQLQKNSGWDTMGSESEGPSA

[8] = tested on: IL-17A; experiment: IL-17A–stimulated cytokine and chemokine production in human cells; type: cell-based; conditions: 24 hours, ELISA
[9] = tested on: IL-17A; experiment: IL-17A–stimulated cytokine and chemokine production in mouse cells; type: cell-based; conditions: 24 hours, ELISA
[10] = tested on: IL-17E; experiment: IL-17E–stimulated CXCL1 production / target gene expression in HT29 cells; type: cell-based, human; conditions: 24 hours
[11] = tested on: IL-17E; type: cell-based, mouse; conditions: IL-17RB–expressing MEFs, 24 hours
[12] = tested on: IL-17A; experiment: IL-17A–mediated signaling events in HeLa cells; type: cell-based, human
[13] = tested on: IL-17F; experiment: IL-17F–stimulated expression of target genes in cultured cells; type: cell-based
[14] = tested on: IL-17A/IL-17F; experiment: IL-17A/IL-17F–stimulated expression of target genes in cultured cells; type: cell-based
[15] = tested on: WT C57BL/6 mice; experiment: Intradermal injection of IL-17A into ears, epidermal hyperplasia; type: in vivo, mouse; conditions: IL-17 plus A18 vs PBS-treated mice, RT-PCR
[16] = tested on: WT C57BL/6 mice; experiment: TPA-induced skin hyperplasia; type: in vivo, mouse; conditions: dorsal skin, RT-PCR (Myc, Cxcl1, Steap4), day 7
[17] = tested on: WT C57BL/6J mice; experiment: Adoptive transfer of MOG-specific TH17 cells to induce EAE; type: in vivo, mouse
[18] = tested on: WT C57BL/6 mice; experiment: Adoptive transfer of OVA-specific TH17 cells, neutrophilic airway inflammation; type: in vivo, mouse; conditions: TH17 cell transfer, RT-PCR
[19] = tested on: WT C57BL/6 mice; experiment: Adoptive transfer of OVA-specific TH2 cells, eosinophilic airway inflammation; type: in vivo, mouse; conditions: RT-PCR
[20] = tested on: WT BALB/cJ mice; experiment: Intranasal injection of IL-17A, pulmonary neutrophilia; type: in vivo; conditions: A18 60 μg per mouse intranasally, 4 hours
[21] = tested on: WT BALB/cJ mice; experiment: Intranasal injection of IL-17E, pulmonary eosinophilia; type: in vivo; conditions: A18 60 μg per mouse intranasally, 24 hours
[22] = tested on: WT C57BL/6 mice; experiment: HDM-induced severe asthma model; type: in vivo; conditions: A18 120 μg per mouse i.p. days 13 and 14 plus 60 μg per mouse intranasally 1 hour before challenge
[23] = molecular target: T3, IL-17RA D262A mutant; experiment: Microscale thermophoresis of IL-17A binding to IL-17RA D262A mutant; conditions: read-out: binding affinity (Kd) of IL-17RA D262A for IL-17A, MST
[24] = molecular target: human IL-17RA D262A mutant protein (soluble, secreted, hexahistidine-tagged) (human); experiment: MST
[25] = molecular target: T4, human IL-17RB-Fc (human, UniProt Q9NRM6 18-289); experiment: ELISA
T4 sequence (looked up): T1 sequence (Q9NRM6 18-289)

[26] = molecular target: T5, human IL-17RE-Fc (human, UniProt Q8NFR9 155-454); experiment: ELISA
T5 sequence (looked up): T2 sequence (Q8NFR9 155-454)

[27] = TH17 cell–mediated EAE, flow cytometry

Chain of IL-17A/IL-17RA binding (Q96F46 33-322): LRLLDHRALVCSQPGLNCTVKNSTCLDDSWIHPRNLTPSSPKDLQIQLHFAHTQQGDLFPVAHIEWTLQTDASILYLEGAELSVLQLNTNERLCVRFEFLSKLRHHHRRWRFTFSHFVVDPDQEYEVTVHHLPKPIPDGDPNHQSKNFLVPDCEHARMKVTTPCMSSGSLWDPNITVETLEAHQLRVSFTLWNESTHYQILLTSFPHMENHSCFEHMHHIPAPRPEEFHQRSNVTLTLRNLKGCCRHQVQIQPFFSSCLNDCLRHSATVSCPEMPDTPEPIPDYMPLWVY

Molecule: Oc1cc(O)c2cc(O)c(-c3cc(O)c(O)c(O)c3)[o+]c2c1 [A10, delphinidin]
- IC50 value compared to that of A18, IL-17A/IL-17RA binding ([1]; in words, relative to A18): slightly improved

Molecule: Oc1cc(O)c2cc(O)c(-c3ccc(O)c(O)c3)[o+]c2c1.[Cl-] [A18, 2-(3,4-dihydroxyphenyl)-3,5,7-trihydroxy-1-benzopyrylium chloride]
- IC50 [1]: 1.68 µM
- disruption of IL-17E/IL-17RB binding [2]: did not efficiently disrupt
- disruption of IL-17C/IL-17RE binding [3]: did not efficiently disrupt
- Kd [4]: ~3 µM
- Kd [5]: 6.35 µM
- binding to IL-17RA by SPR [6]: confirmed the binding
- binding of IL-17A to ectopically expressed or endogenous IL-17RA on live cells [7]: inhibited
- IL-17A–stimulated production of CXCL1 (GROα), IL-6 and IL-8 [8]: substantially inhibited
- IL-17A–stimulated production of CXCL1 (KC), IL-6 and CXCL2 (MIP-2) [9]: substantially inhibited
- IL-17E–stimulated production of CXCL1 / expression of target genes [10]: limited inhibitory activity; also recorded: little effect
- IL-17E–stimulated production of CXCL1 / expression of target genes [11]: limited inhibitory activity; also recorded: little effect
- IL-17A–mediated recruitment of Act1 to IL-17RA ([12]; 10 μM A18): decreased
- IL-17A–mediated phosphorylation of IκBα, JNK, p38 and ERK1/2 ([12]; pretreated 1 hour with 10 μM A18): decreased
- IL-17F–stimulated expression of target genes [13]: inhibited
- IL-17A/IL-17F–stimulated expression of target genes [14]: inhibited
- abundances of Myc, Cxcl1 and Steap4 mRNAs in the ears [15]: not substantially increased
- TPA-induced expression of target genes [16]: substantially reduced
- EAE disease severity (peak and remission stages) after cessation of A18 ([17]; A18 withdrawn on day 15, compared with mice never treated with A18): substantially reduced
- numbers of CD4+CD25+Foxp3+ Treg cells in lymphoid organs or CNS ([17]; EAE recovery phase (day 20)): did not affect
- demyelination in the spinal cords ([17]; TH17 cell–mediated EAE): diminished demyelination
- expression of IL-17A target genes ([17]; TH17 cell–mediated EAE): reduced expression
- infiltration into the brains of CD4+ T cells, CD8+ T cells or F4/80+ macrophages [17, 27]: no effect
- recruitment of Ly6G+ neutrophils into the brains [17, 27]: substantially reduced
- inflammatory gene expression in the lungs [18]: substantially reduced
- expression of genes encoding TH2 cell–type cytokines in the lungs [19]: no effect
- IL-17A–induced pulmonary neutrophilia [20]: substantially inhibited
- expression of IL-17A target genes (Cxcl1, Il6, Ccl11) in lung [20]: substantially inhibited
- IL-17E–induced pulmonary eosinophilia [21]: did not inhibit
- TH2 cell–associated gene expression in lung ([21]; IL-17E): did not inhibit
- HDM-induced AHR [22]: substantially reduced
- HDM-induced inflammatory gene expression in the lungs [22]: substantially reduced
- HDM-induced neutrophilia [22]: substantially reduced

Molecule: OC[C@H]1O[C@@H](Oc2cc3c(O)cc(O)cc3[o+]c2-c2ccc(O)c(O)c2)[C@H](O)[C@@H](O)[C@@H]1O [cyanidin-3-O-glucoside]
- IC50 ([1]; read-out: IC50, inhibition of IL-17A/IL-17RA binding, in vitro ligand-receptor binding inhibition assay, purified proteins): 6.88 µM

Molecule: Oc1cc(O)c2ccc(-c3ccc(O)c(O)c3)[o+]c2c1 [luteolinidin]
- IC50 [1]: 6.75 µM

Molecule: Oc1ccc(-c2[o+]c3cc(O)cc(O)c3cc2O)cc1 [pelargonidin]
- IC50 [1]: > 100 µM

Molecule: IL-17A: purified recombinant human interleukin-17A, cytokine ligand of IL-17RA
- Kd [23]: 1.57 µM

Molecule: purified recombinant human IL-17A (from UniProt Q16552 24-155) (ligand)
- Kd [24]: 1.57 µM

B1: purified recombinant human IL-17E (IL-25) (ligand, UniProt Q9H293 33-177, looked up)
chain: YSHWPSCCPSKGQDTSEELLRWSTVPVPPLEPARPNRHPESCRASEDGPLNSRAISPWRYELDRDLNRLPQDLYHARCLCPHCVSLQTGSHMDPRGNSELLYHNQTVFYRRPCHGEKGTHKGYCLERRLYRVSLACVCVRPRVMG
- binding result [25]: binds

B2: purified recombinant human IL-17C (ligand, UniProt Q9P0M4 19-197, looked up)
chain: HHDPSLRGHPHSHGTPHCYSAEELPLGQAPPHLLARGAKWGQALPVALVSSLEAASHRGRHERPSATTQCPVLRPEEVLEADTHQRSISPWRYRVDTDEDRYPQKLAFAECLCRGCIDARTGRETAALNSVRLLQSLLVLRRRPCSRDGSGLPTPGAFAFHTEFIHVPVGCTCVLPRSV
- binding result [26]: binds
